Among the data in patent US11897883B1, “Pyrrolo[3,2-c][1,6]naphthyridine-2-carboxylic acid compounds as CK2 inhibitors” (KING FAISAL UNIVERSITY, priority 2023, dated 2024) are IC50 values, retold here.

One assay deals with HL60 (leukemia). As to the kind of experiment: In vitro cytotoxic activity MTT assay, HL60. In kind it is cell-based. Particulars: Homo sapiens, HL-60, 96 hours exposure, read-out: IC50, concentration eliciting a 50% inhibition of cell proliferation. On the procedure:
(§1) Compounds 1-16 were screened for their in vitro cytotoxic activity utilizing a 3-(4,5-dimethyl-thiazol-2-yl)-2,5-diphenyltetrazolium bromide (MTT) assay against selected cancer human cell lines consisting of PC3 (prostate), HCT116 (colon), A375 (melanoma), H1299 (lung), MIAPaCa-2 (pancreas), HL60 (leukemia), MCF7 (breast), MDA-MB-231 (breast) (T. Mosmann, J. Immunol. Meth., 1983, 65, 55-63). The cells were cultured at 37° C. in RMPI1640 medium supplemented with 10% fetal bovine serum, 50 IU/mL penicillin, and 50 μg/mL streptomycin in a 5% CO2 incubator. All cells were sub-cultured 3 times/week by trypsinisation. Viable cells were seeded and allowed to adhere for 12 h before a test drug was added in 96-well plates at an initial density of 1.0×10^5 cells/mL. Tumour cell lines were separately exposed to various concentrations of the tested compounds followed by incubation at a temperature of 37° C. during 96 h inside a medium of fresh RMPI 1640. Cells were subsequently incubated at 37° C. using MTT at 0.5 mg/mL during 4 h. After removal of supernatant, formazan crystals were dissolved in isopropanol and the optical density was measured at 570 nm. CX-4945 was used as a positive control.

Another assay relates to MIAPaCa-2 (pancreas). The experiment in a line: In vitro cytotoxic activity MTT assay, MIAPaCa-2. It counts as cell-based. Particulars: Homo sapiens, MIA PaCa-2, 96 hours exposure, read-out: IC50, concentration eliciting a 50% inhibition of cell proliferation. On the procedure: as §1
In another assay the test system is PC3 (prostate). The experiment in a line: In vitro cytotoxic activity MTT assay, PC3. It counts as cell-based. The following applies: Homo sapiens, 96 hours exposure, read-out: IC50, concentration eliciting a 50% inhibition of cell proliferation. On the procedure: as §1
The target of assay [1] is T1, recombinant human CK2 (RRββ-holoenzyme) (Homo sapiens, UniProt P68400).
T1 construct: purchased Millipore
T1 sequence (P68400 whole entry): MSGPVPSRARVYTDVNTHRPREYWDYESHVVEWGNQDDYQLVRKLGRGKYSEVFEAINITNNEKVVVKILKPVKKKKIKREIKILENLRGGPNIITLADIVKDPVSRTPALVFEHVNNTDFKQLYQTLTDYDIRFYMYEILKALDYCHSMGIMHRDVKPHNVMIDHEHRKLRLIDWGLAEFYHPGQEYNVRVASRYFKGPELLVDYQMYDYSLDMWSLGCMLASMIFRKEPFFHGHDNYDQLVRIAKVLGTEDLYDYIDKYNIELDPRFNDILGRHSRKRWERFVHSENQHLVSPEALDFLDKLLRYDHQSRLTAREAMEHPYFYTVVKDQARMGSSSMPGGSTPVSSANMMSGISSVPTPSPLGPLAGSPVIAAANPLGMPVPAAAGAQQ
T1 sequence (P67870 whole entry partner): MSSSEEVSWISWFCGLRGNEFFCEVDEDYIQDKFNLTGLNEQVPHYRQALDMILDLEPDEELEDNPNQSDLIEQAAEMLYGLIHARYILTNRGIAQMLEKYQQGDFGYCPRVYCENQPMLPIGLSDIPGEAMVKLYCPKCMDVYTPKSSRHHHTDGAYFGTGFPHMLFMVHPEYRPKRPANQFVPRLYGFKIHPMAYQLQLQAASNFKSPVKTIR
As to the kind of experiment: CK2 Kinase Assay (33P-ATP, substrate peptide RRRDDDSDDD). The following applies: final ATP 15 μM, 10 min at 30 °C; read-out: protein kinase CK2 IC50. In kind it is biochemical. On the procedure:
CK2 Kinase Assay was conducted using the protocol as described in Pierre F. et al.; J. Med. Chem. 2011, 54, 635-654. The tested compounds in aqueous solution were added at a volume of 10 μL to a reaction mixture comprising 10 μL of assay dilution buffer (ADB; 20 mM MOPS, pH 7.2, 25 mM β-glycerol phosphate, 5 mM EGTA, 1 mM sodium orthovanadate, and 1 mM dithiothreitol), 10 μL of substrate peptide (RRRDDDSDDD, dissolved in ADB at a concentration of 1mM), 10 μL of recombinant human CK2 (RRββ-holoenzyme, 25 ng dissolved in ADB; Millipore). Reactions were initiated by the addition of 10 μL of ATP solution (90% 75 mMMgCl2, 75 μM ATP (final ATP concentration:15 μM) dissolved in ADB; 10% [γ-33P] ATP (stock 1 mCi/100 μL; 3000 Ci/mmol (Perkin-Elmer) and maintained for 10 min at 30 ° C. The reactions were quenched with 100 μL of 0.75% phosphoric acid and then transferred to and filtered through a phosphor cellulose filter plate (Millipore). After washing each well five times with 0.75% phosphoric acid, the plate was dried under vacuum for 5 min and, following the addition of 15 μL of scintillation fluid to each well, the residual radioactivity was measured using a Wallac luminescence counter. The IC50 values were derived from eight concentrations of test inhibitors.

The next assay relates to MDA-MB-231 (breast). As to the kind of experiment: In vitro cytotoxic activity MTT assay, MDA-MB-231. In kind it is cell-based. Particulars: Homo sapiens, 96 hours exposure, read-out: IC50, concentration eliciting a 50% inhibition of cell proliferation. On the procedure:
as §1

In a further assay the test system is A375 (melanoma). The experiment in a line: In vitro cytotoxic activity MTT assay, A375. In kind it is cell-based. The following applies: Homo sapiens, A-375, 96 hours exposure, read-out: IC50, concentration eliciting a 50% inhibition of cell proliferation. On the procedure: as §1
Another assay deals with HCT116 (colon). As to the kind of experiment: In vitro cytotoxic activity MTT assay, HCT116. Particulars: Homo sapiens, HCT-116, 96 hours exposure, read-out: IC50, concentration eliciting a 50% inhibition of cell proliferation. It counts as cell-based. On the procedure:
as §1

The subject of a further assay is H1299 (lung). As to the kind of experiment: In vitro cytotoxic activity MTT assay, H1299. Particulars: Homo sapiens, NCI-H1299, 96 hours exposure, read-out: IC50, concentration eliciting a 50% inhibition of cell proliferation. It counts as cell-based. On the procedure:
as §1

The subject of a further assay is MCF7 (breast). The experiment in a line: In vitro cytotoxic activity MTT assay, MCF7. It counts as cell-based. Particulars: Homo sapiens, 96 hours exposure, read-out: IC50, concentration eliciting a 50% inhibition of cell proliferation. On the procedure: as §1

As for `O=C(O)c1cc2c(Nc3cccc(Cl)c3)nc3ccncc3c2[nH]1` [Compound 1, 4-((3-chlorophenyl)amino)-1H-pyrrolo[3,2-c][1,6]naphthyridine-2-carboxylic acid], the IC50 is 2500 nM with HL60 (leukemia); 1100 nM in the assay on MIAPaCa-2 (pancreas); 2100 nM with PC3 (prostate); 26 nM in assay [1]; 3700 nM in the assay with MDA-MB-231 (breast); 2900 nM with A375 (melanoma). Also, the IC50 came to 1300 nM in the assay on HCT116 (colon), 1400 nM with H1299 (lung) and 4200 nM with MCF7 (breast).
